What all share (format): cell-based
The subject of test [1] is KMS-28BM cells (myeloma cell line). Kind of test: Cell death inducing effect on KMS-28BM cells, trypan blue staining. Particulars: KMS-28BM (myeloma), cell viability. As for the experimental part:
KMS-28BM cells (myeloma cell line) were cultured under 5% CO2 at 37° C. The culture medium used RPMI-1640 medium with 100 μg/mL penicillin, 100 U/mL streptomycin and fetal bovine serum. KMS-28BM cells were seeded into 96-well plates and incubated with each concentration of the compounds was added, and cell viability was determined by the trypan blue staining.
(§1) For controls, only 0.5% DMSO (diluted in PBS) used to dissolve the compounds was added. For each concentration, each bar line is indicated by an arrow with the sign “n, a, 1, 2, 3, 4, 5, 6, 7, 8, 9, 10, 11, 12” from left to right. The “1, 3, 5, 7, 9, 11” are omitted from the graph, but the sign “1” shall be indicated by an arrow between the signs “a” and “2”, the sign “3” between the signs “2” and “4”, and other odd numbers shall likewise be indicated by arrows between even numbers before and after.
(§2) The sign “n” is the norathyriol (formula (n)) administration group, the sign “a” is the mangiferin 8a (formula (a)) administration group, the sign “1” is the yk-7 (formula (1)) administration group, the sign “2” is the yk-8-1 (formula (2)) administration group, the sign “3” is the yk-8-3 (formula (3)) administration group, the sign “4” is the M7 (formula (4)) administration group, the sign “5” is the M9 (formula (5)) administration group, the sign “6” is the M11 (formula (6)) administration group, the sign “7” is the M12 (formula (7)) administration group, the sign “8” is the M14 (formula (8)) administration group, the sign “9” is the M15 (formula (9)) administration group, the sign “10” is the M16 (formula (10)) administration group, the sign “11” is the M18 (formula (11)) administration group, the sign “12” is the M19 (formula (12)) administration group, respectively. The IC50 values for each compound is also listed in the upper right corner of the figure.

The test system of test [2] is RPMI1788 cells (human normal B cell line). Kind of test: Cell death inducing effect on RPMI1788 normal B cells, trypan blue staining. Particulars: RPMI1788 (normal B lymphocyte), cell viability. As for the experimental part: RPMI1788 cells (human normal B cell line) were cultured under 5% CO2 at 37° C. The culture medium used RPMI-1640 medium with 100 μg/mL penicillin, 100 U/mL streptomycin and fetal bovine serum. RPMI1788 cells were seeded into 96-well plates and incubated with each concentration of the compounds was added, and cell viability was determined by the trypan blue staining.
as §1, §2

In a further test the test system is NF-κB p52 nuclear. The experiment in a line: Immunoblotting of NF-κB p52 nuclear in KMS-28BM cells. The note with it: nuclear fraction, 72 h, same concentrations (0.005-100 μM). Here is the method: Immunoblotting was performed on KMS-28BM cells to investigate the inhibitory effect of each compound administration on NIK inhibition and the activation of IKK, NF-κB p52, and NF-κB p65, which are downstream signals of NIK. As a result, inhibition of NIK activation, inhibition of IKK activity, and inhibition of nuclear translocation of NF-κB p52 and NF-κB p65 were observed (FIG. 15 and FIG. 16).
As a control, compounds untreated KMS-28BM cells were seeded in 150 cm^2 flasks and incubated for 72 h at 37° C. and 5% CO2. KMS-28BM cells were seeded into 150 cm^2 flasks and pre-cultured for 24 h. After incubation, KMS-28BM cells were treated with […], 1 μM norathyriol, 0.5 μM M7 (formula (4)), 1 μM M8 (mangiferin 8a: listed in duplicate), 0.2 μM M9 (formula (5)), 5 μM yk-7 (formula (1)), 0.5 μM yk-8-3 (formula (3)) and 100 μM yk-8-1 (formula (2)) at final concentrations, and incubated for 72 h at 37° C. and 5% CO2. In addition, KMS-28BM cells were also treated with 0.5 μM M19 (formula (12)), 0.5 μM M18 (formula (11)), 0.005 μM M16 (formula (10)), […] (formula (9)), 0.005 μM M14 (formula (8)), 0.05 μM M12 (formula (7)) and […] (formula (6)) at the final concentrations, and incubated for 72 h at 37° C. and 5% CO2. Proteins were extracted from these cell suspensions with cell lysate and used as samples.
The nucleus and cytoplasmic substrate were separated from the cells using the ProteoExtract (registered trademark) Subcellular Proteome Extraction Kit from Merck Ltd. to extract the cytoplasmic and nuclear fractions.
After SDS-PAGE, each sample was transferred to a PVDF membrane and examined using anti-phospho-NIK, anti-NIK, anti-phospho-IKK, anti-IKK, anti-P-actin, anti-NF-κB p52 and anti-NF-κB p65 antibody, and anti-Lamin antibody.
The antibody species is indicated in the vertical direction. Specifically, for anti-phospho-NIK antibody, “Phospho-NIK” was used, for anti-NIK antibody, “NIK” was used, for anti-phospho-IKK antibody, “Phospho-IKK” was used, for anti-IKK antibody, “IKK” was used, for anti-p-actin antibody, “p-actin” was used, for anti-NF-κB p52 antibody, “NF-κB p52 nuclear” was used, for anti-NF-κB p65 antibody, “NF-κB p65 nuclear” was used, and for anti-Lamin antibody, “Lamin” was used.

The subject of a further test is CD138. The experiment in a line: CD138 expression in KMS-28BM cells, flow cytometry. The note with it: 10 days, concentration lower than the IC50 (0.005-50 μM), compared to the positive control. Here is the method: As a control, compounds untreated KMS-28BM cells were seeded in 75 cm^2 flasks and incubated for 10 days at 37° C. and 5% CO2. KMS-28BM cells were seeded into 75 cm^2 flasks and pre-cultured for 4 h. After incubation, KMS-28BM cells were treated with […], 0.05 μM M9, 0.1 μM yk-7, 0.1 μM yk-8-3, 50 μM yk-8-1, 0.5 μM M11, […], 0.005 μM M14, 0.005 μM M15, 0.005 μM M16, 0.5 μM M18, and 0.5 μM M19 at final concentrations, and incubated for 10 days at 37° C. and 5% CO2. This added amount is a concentration lower than the IC50 of the above compounds for KMS-28BM cells. After 10 days of incubation, cells were stained with anti-CD138 antibody, a marker of multiple myeloma grade, and CD138 expression was measured using BD LSRFortessa.
Results are shown in FIG. 17, FIG. 18, FIG. 19 and FIG. 20. The horizontal axis represents the expression level of CD138 and the vertical axis represents the number of cells.

pIC50: −log10 of the molar value. Where only a bound is given, the exact number is not on record here.

As to “1,2′,3′,4′,6-penta-O-propionylmangiferin [Compound 8a, reference compound]”, the values for the pIC50 in test [1] and in test [2] were 5.66 and less than 4.00, respectively. Moreover, in the test on NF-κB p52 nuclear, the “NF-κB p52 nuclear” value is recorded as “decreased”.
As for `CCC(=O)OC[C@H]1O[C@@H](c2c(OC(=O)CC)cc3oc4cc(OC(=O)CC)c(OC(=O)CC)cc4c(=O)c3c2OC(=O)CC)[C@H](OC(=O)CC)[C@@H](OC(=O)CC)[C@@H]1OC(=O)CC` [Compound M7, 1,3,2′,3′,4′,6,6′,7-octa-O-propionylmangiferin], the negative-log IC50 (pIC50) is 6.11 in test [1] and less than 4.00 in test [2] (Homo sapiens, RPMI-1788). In addition, in the test with CD138, the CD138 expression levels result is given as “markedly reduced”. In the test on NF-κB p52 nuclear, the “NF-κB p52 nuclear” value was “decreased”.
Consider `CCC(=O)OC[C@H]1O[C@@H](c2c(O)cc3oc4cc(O)c(O)cc4c(=O)c3c2O)[C@H](OC(=O)CC)[C@@H](OC(=O)CC)[C@@H]1OC(=O)CC` [Compound M9, 2′,3′,4′,6′-tetra-O-propionylmangiferin], for which the negative-log IC50 (pIC50) in test [1] is 6.68; in test [2] (Homo sapiens, RPMI-1788) it was less than 4.00. Moreover, the CD138 expression levels entry with CD138 is “markedly reduced”. The “NF-κB p52 nuclear” value with NF-κB p52 nuclear is on record as “decreased”.
With `CCCC(=O)OC[C@H]1O[C@@H](c2c(OC(=O)CCC)cc3oc4cc(OC(=O)CCC)c(OC(=O)CCC)cc4c(=O)c3c2OC(=O)CCC)[C@H](OC(=O)CCC)[C@@H](OC(=O)CCC)[C@@H]1OC(=O)CCC` [Compound M11, 1,3,2′,3′,4′,6,6′,7-octa-O-butyrylmangiferin], the pIC50 is 5.72 in test [1] and less than 4.00 in test [2]. For the same compound, the CD138 expression levels result in the test with CD138 is “markedly reduced”. Further, the “NF-κB p52 nuclear” value in the test with NF-κB p52 nuclear was “decreased”.
In the case of `CCCC(=O)OC[C@H]1O[C@@H](c2c(O)cc3oc4cc(O)c(O)cc4c(=O)c3c2OC(=O)CCC)[C@H](OC(=O)CCC)[C@@H](OC(=O)CCC)[C@@H]1OC(=O)CCC` [Compound M12, 1,2′,3′,4′,6-penta-O-butyrylmangiferin], the pIC50 was 6.68 in test [1] and 4.12 in test [2] (Homo sapiens, RPMI-1788). The CD138 expression levels result with CD138 is given as “markedly reduced”. For the same compound, in the test with NF-κB p52 nuclear, the “NF-κB p52 nuclear” value is listed as “decreased”.
Regarding `CCCC(=O)OC[C@H]1O[C@@H](c2c(O)cc3oc4cc(O)c(O)cc4c(=O)c3c2O)[C@H](OC(=O)CCC)[C@@H](OC(=O)CCC)[C@@H]1OC(=O)CCC` [Compound M14, 2′,3′,4′,6′-tetra-O-butyrylmangiferin], the pIC50 in test [1] was 7.10; in test [2] (Homo sapiens, RPMI-1788), 4.16. For the same compound, the CD138 expression levels result in the test on CD138 is reported as “markedly reduced”. Further, the “NF-κB p52 nuclear” value with NF-κB p52 nuclear is “decreased”.
Consider `CC(C)(C)C(=O)OC[C@H]1O[C@@H](c2c(O)cc3oc4cc(O)c(O)cc4c(=O)c3c2O)[C@H](OC(=O)C(C)(C)C)[C@@H](OC(=O)C(C)(C)C)[C@@H]1OC(=O)C(C)(C)C` [Compound M15, 2′,3′,4′,6′-tetra-O-pivaloylmangiferin], for which the pIC50 was 6.77 in test [1] and 4.15 in test [2] (Homo sapiens, RPMI-1788). Moreover, in the test with CD138, the CD138 expression levels entry is “markedly reduced”. The “NF-κB p52 nuclear” value in the test on NF-κB p52 nuclear was “decreased”.
Turning to `CCCCO[C@@H]1[C@@H](OCCCC)[C@H](c2c(O)cc3oc4cc(O)c(O)cc4c(=O)c3c2O)O[C@H](COC(=O)CCC)[C@H]1OC(=O)CCC` [Compound M16, 2′,3′-di-O-butyl-4′,6′-di-O-butyrylmangiferin], the pIC50 in test [1] is 7.15; in test [2] (Homo sapiens, RPMI-1788) it was 4.24. In addition, in the test on CD138, the CD138 expression levels entry is “markedly reduced”. Moreover, in the test on NF-κB p52 nuclear, the “NF-κB p52 nuclear” value was “decreased”.
For the compound `O=c1c2cc(O)c(O)cc2oc2cc(O)cc(OCCO)c12` [Compound M18, 3,6,7-trihydroxy-1-(2-hydroxyethoxy)-9H-xanthen-9-one], the negative logarithm of the IC50 (pIC50) in test [1] was 6.05; in test [2] (Homo sapiens, RPMI-1788) it was less than 4.00. Further, the CD138 expression levels entry with CD138 is listed as “markedly reduced”. In addition, the “NF-κB p52 nuclear” value in the test on NF-κB p52 nuclear is on record as “decreased”.
In the case of `C=CCOc1cc(O)cc2oc3cc(O)c(O)cc3c(=O)c12` [Compound M19, 1-allyloxy-3,6,7-trihydroxy-9H-xanthen-9-one], the negative logarithm of the IC50 (pIC50) in test [1] was 5.68; in test [2] (Homo sapiens, RPMI-1788), less than 4.00. The CD138 expression levels entry in the test on CD138 is recorded as “markedly reduced”. Moreover, the “NF-κB p52 nuclear” value in the test on NF-κB p52 nuclear is listed as “decreased”.
For `O=c1c2cc(O)c(O)cc2oc2cc(O)cc(O)c12` [norathyriol, reference compound], the negative-log IC50 (pIC50) in test [1] was 5.82. The “NF-κB p52 nuclear” value in the test on NF-κB p52 nuclear is reported as “decreased”.
`CCCCC(=O)OC[C@H]1O[C@@H](c2c(O)cc3oc4cc(O)c(O)cc4c(=O)c3c2O)[C@H](OC(=O)CCCC)[C@@H](OC(=O)CCCC)[C@@H]1OC(=O)CCCC` [yk-7, 2′,3′,4′,6′-tetra-O-valerylmangiferin]: the negative logarithm of the IC50 (pIC50) is 5.28 in test [1] and 5.56 in test [2] (Homo sapiens, RPMI-1788). Also, in the test with CD138, the CD138 expression levels result is reported as “markedly reduced”. Moreover, the “NF-κB p52 nuclear” value in the test with NF-κB p52 nuclear is recorded as “decreased”.
With `CCCCC(=O)OC[C@H]1O[C@@H](c2c(OC(=O)CCCC)cc3oc4cc(OC(=O)CCCC)c(OC(=O)CCCC)cc4c(=O)c3c2OC(=O)CCCC)[C@H](OC(=O)CCCC)[C@@H](OC(=O)CCCC)[C@@H]1OC(=O)CCCC` [yk-8-1, 1,3,2′,3′,4′,6,6′,7-octa-O-valerylmangiferin], the pIC50 in test [1] and in test [2] was less than 4.00 throughout. For the same compound, in the test with CD138, the CD138 expression levels entry was “markedly reduced”. Also, in the test on NF-κB p52 nuclear, the “NF-κB p52 nuclear” value is on record as “decreased”.
Consider `CCCCC(=O)OC[C@H]1O[C@@H](c2c(O)cc3oc4cc(O)c(O)cc4c(=O)c3c2OC(=O)CCCC)[C@H](OC(=O)CCCC)[C@@H](OC(=O)CCCC)[C@@H]1OC(=O)CCCC` [yk-8-3, 1,2′,3′,4′,6-penta-O-valerylmangiferin], for which the negative-log IC50 (pIC50) is 6.24 in test [1] and 6.38 in test [2] (Homo sapiens, RPMI-1788). In addition, in the test on CD138, the CD138 expression levels result is “markedly reduced”. Also, in the test on NF-κB p52 nuclear, the “NF-κB p52 nuclear” value is on record as “decreased”.
